Experimental data published in patent publication US20080269161A1, “Compositions and Methods Relating to Mitochondrial Hyperpolarization in Neurological Disease” (priority 2005, published 2008).

Test system: hippocampal neurons
Assay: Dendrite beading and spine loss in hippocampal neurons in vitro
Assay type: cell-based, rat
Conditions: cPAF 130 nM, 60 hours
Source text: (A) cPAF causes dendrite beading and loss of dendritic spines. (A′) Low-magnification images show minimal changes in dendrite morphology and total spine number in control cultures (left). In cPAF-treated cultures (right), dendrite beading (red arrows) is accompanied by spine loss and sprouting of filopodia (green arrowheads) but gross aspects of dendrite structure are preserved. (B) No cells developed dendritic swellings in control cultures, while 55±3% of cPAF-exposed cells beaded. (C) 43±5% of dendritic spines were lost during cPAF exposure, while total spine number was maintained in control cultures.
An additional pathologic consequence of exposure to HIV-1 neurotoxins is an increase in oxidized cellular phospholipids that can bind to and activate the PAF-R [Marathe, G. K., et al., Vascul Pharmacol, 2002. 38(4): p. 193-200]. Both energetic stress and PAF-R signaling have the potential to impair post-synaptic neurotransmission. Thus, a morphologic correlate of dendrite damage in HAD was identified, which is activity-induced dendritic swelling or “beading” in the presence of the HIV neurotoxin cPAF. […]
(3) Primary rat hippocampal neurons (HN). […] Dissociated cells are counted by trypan blue viability assay and plated in cell culture plates at 0.5-0.6×10^5 cells/cm^2, on poly-D-lysine-coated cell culture plastic or sterile glass coverslips. […]

CCCCCCCCCCCCCCCCOC[C@H](COP(=O)([O-])OCC[N+](C)(C)C)OC(=O)NC [PAF, carbamyl-platelet-activating factor]
cells with dendrite beading: 55±3%
dendritic spines lost: 43±5%
